Results from PubChem BioAssay AID330 (DTP/NCI, 2004).
Values joined by “and” are separate entries in the source; they are usually repeats but may differ in a detail not shown here. Equal entries are not always repeated. Inconclusive results and toxic doses are left out. Rule for the calls: active = survival T/C of 150% or more; inactive = T/C below 125% in these data.

System: P388 leukemia ip, CD2F1 mice, survival T/C
Assay: NCI In Vivo Anticancer Drug Screen. Data for tumor model P388 Leukemia (intraperitoneal) in CD2F1 (CDF1) mice
Conditions: endpoint: median survival time, higher = longer survival
Summary of the method: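 Mice carrying the transplanted tumor received test compound or vehicle. Survival was recorded in each group, and the value is the treated-group measurement divided by that of the vehicle-treated control group.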

[1] = dose: 60.0 mg/kg/injection, schedule: Q01DX005 (ip), vehicle: saline with Tween-80
[2] = dose: 120.0 mg/kg/injection, schedule: Q01DX005 (ip), vehicle: saline with Tween-80
[3] = dose: 240.0 mg/kg/injection, schedule: Q01DX005 (ip), vehicle: saline with Tween-80
[4] = dose: 2.5 mg/kg/injection, schedule: Q01DX009 (ip), vehicle: Klucel (hydroxypropylcellulose) (HPC)
[5] = dose: 5.0 mg/kg/injection, schedule: Q01DX009 (ip), vehicle: Klucel (hydroxypropylcellulose) (HPC)
[6] = dose: 100.0 mg/kg/injection, schedule: Q01DX005 (ip), vehicle: Klucel (hydroxypropylcellulose) (HPC)
[7] = dose: 50.0 mg/kg/injection, schedule: Q01DX009 (ip), vehicle: Klucel (hydroxypropylcellulose) (HPC)
[8] = dose: 100.0 mg/kg/injection, schedule: Q01DX009 (ip), vehicle: Klucel (hydroxypropylcellulose) (HPC)
[9] = dose: 200.0 mg/kg/injection, schedule: Q01DX009 (ip), vehicle: Klucel (hydroxypropylcellulose) (HPC)
[10] = dose: 12.5 mg/kg/injection, schedule: Q01DX009 (ip), vehicle: Klucel (hydroxypropylcellulose) (HPC)
[11] = dose: 25.0 mg/kg/injection, schedule: Q01DX009 (ip), vehicle: Klucel (hydroxypropylcellulose) (HPC)
[12] = dose: 12.5 mg/kg/injection, schedule: Q01DX005 (ip), vehicle: Klucel (hydroxypropylcellulose) (HPC)
[13] = dose: 25.0 mg/kg/injection, schedule: Q01DX005 (ip), vehicle: Klucel (hydroxypropylcellulose) (HPC)
[14] = dose: 50.0 mg/kg/injection, schedule: Q01DX005 (ip), vehicle: Klucel (hydroxypropylcellulose) (HPC)
[15] = dose: 12.5 mg/kg/injection, schedule: Q01DX009 (ip), vehicle: saline
[16] = dose: 25.0 mg/kg/injection, schedule: Q01DX009 (ip), vehicle: saline
[17] = dose: 50.0 mg/kg/injection, schedule: Q01DX009 (ip), vehicle: saline
[18] = dose: 200.0 mg/kg/injection, schedule: Q01DX005 (ip), vehicle: Klucel (hydroxypropylcellulose) (HPC)

Measured: T/C

CSc1nc(NC2OC(COC(C)=O)C(OC(C)=O)C(OC(C)=O)C2OC(C)=O)c(N=C(C)C(C)=O)c(=O)[nH]1 (configuration not stated)
inactive: [1] 100 % of control | [2] 96 % of control | [3] 86 % of control

CC(C)CC1C(=O)N2CCCC2C2(O)OC(NC(=O)C3C=C4c5cccc6[nH]cc(c56)CC4N(C)C3)(C(C)C)C(=O)N12 (configuration not stated)
inactive: [4] 91 % of control | [5] 90 % of control | dose: 20.0 mg/kg/injection, schedule: Q01DX009 (ip), vehicle: Klucel (hydroxypropylcellulose) (HPC) 99 % of control | dose: 40.0 mg/kg/injection, schedule: Q01DX009 (ip), vehicle: Klucel (hydroxypropylcellulose) (HPC) 101 % of control

c1ccc2c(c1)nnn1c3ncccc3nc21
inactive: dose: 12.5 mg/kg/injection, schedule: Q01DX009 (ip), vehicle: saline with Tween-80 108 % of control | dose: 25.0 mg/kg/injection, schedule: Q01DX009 (ip), vehicle: saline with Tween-80 105 % of control | dose: 50.0 mg/kg/injection, schedule: Q01DX009 (ip), vehicle: saline with Tween-80 105 % of control

C/C(=N/NC(=O)O[C@@H]1C[C@H](C)CC[C@H]1C(C)C)c1cc[c]([Sn]([CH3])([Cl])[c]2ccccc2)cc1 (some centres not stated)
inactive: dose: 0.93 mg/kg/injection, schedule: Q01DX005 (ip), vehicle: Klucel (hydroxypropylcellulose) (HPC) 108 % of control | dose: 1.87 mg/kg/injection, schedule: Q01DX005 (ip), vehicle: Klucel (hydroxypropylcellulose) (HPC) 100 % of control | dose: 3.75 mg/kg/injection, schedule: Q01DX005 (ip), vehicle: Klucel (hydroxypropylcellulose) (HPC) 100 % of control and 109 % of control | dose: 7.5 mg/kg/injection, schedule: Q01DX005 (ip), vehicle: Klucel (hydroxypropylcellulose) (HPC) 107 % of control

COc1ccc2c(N3CCN(C(=O)C(Cl)(Cl)Cl)CC3)cc(C)nc2c1
inactive: [1] 103 % of control | [2] 104 % of control | [3] 102 % of control

Cc1ccc(C)c(C2(c3cc(C)ccc3C)CCCCCC2=O)c1
inactive: [6] 88 % of control

CCc1ccc2c(c1)C(O)(C#Cc1ccccc1)c1cc(CC)ccc1C2(O)C#Cc1ccccc1 (configuration not stated)
inactive: dose: 100.0 mg/kg/injection, schedule: Q04DX002 (ip), vehicle: saline with Tween-80 93 % of control | dose: 200.0 mg/kg/injection, schedule: Q04DX002 (ip), vehicle: saline with Tween-80 93 % of control | dose: 400.0 mg/kg/injection, schedule: Q04DX002 (ip), vehicle: saline with Tween-80 93 % of control

O=C1NCCN1c1cccc([N+](=O)[O-])c1
inactive: dose: 12.5 mg/kg/injection, schedule: Q01DX009 (ip), vehicle: saline sonified 90 % of control | dose: 25.0 mg/kg/injection, schedule: Q01DX009 (ip), vehicle: saline sonified 100 % of control | dose: 50.0 mg/kg/injection, schedule: Q01DX009 (ip), vehicle: saline sonified 90 % of control

COc1cccc(/C=N\NC(=O)C(=O)N/N=C\c2cccc(OC)c2O)c1O
inactive: [7] 86 % of control | [8] 89 % of control | [9] 92 % of control

O=S1(=O)N=C(N2CCCCC2)c2ccccc21
inactive: dose: 50.0 mg/kg/injection, schedule: Q01DX005 (ip), vehicle: saline with Tween-80 99 % of control | dose: 100.0 mg/kg/injection, schedule: Q01DX005 (ip), vehicle: saline with Tween-80 96 % of control | dose: 200.0 mg/kg/injection, schedule: Q01DX005 (ip), vehicle: saline with Tween-80 97 % of control

C=CCOc1c2c(cc3ccc(=O)oc13)CC=CO2
inactive: [10] 95 % of control | [11] 105 % of control | [7] 98 % of control and 100 % of control | [8] 112 % of control

CCCN(CCC)CC1CN(/N=C/c2ccc([N+](=O)[O-])o2)C(=O)O1 (configuration not stated)
inactive: dose: 50.0 mg/kg/injection, schedule: Q01DX005 (ip), vehicle: saline 108 % of control | dose: 100.0 mg/kg/injection, schedule: Q01DX005 (ip), vehicle: saline 100 % of control | dose: 200.0 mg/kg/injection, schedule: Q01DX005 (ip), vehicle: saline 108 % of control

CCN(CCO)CCNc1ccc(C)c2sc3cc(Cl)ccc3c(=O)c12
inactive: [12] 104 % of control | [13] 104 % of control | [14] 101 % of control and 102 % of control | [6] 111 % of control

COc1ccncc1CCc1cnccc1OC
inactive: dose: 100.0 mg/kg/injection, schedule: Q04DX003 (ip), vehicle: saline 99 % of control | dose: 200.0 mg/kg/injection, schedule: Q04DX003 (ip), vehicle: saline 93 % of control | dose: 400.0 mg/kg/injection, schedule: Q04DX003 (ip), vehicle: saline 90 % of control

COc1ccc2c(CSCCO)cc(=O)oc2c1
inactive: dose: 50.0 mg/kg/injection, schedule: Q04DX003 (ip), vehicle: suspension in saline 97 % of control | dose: 100.0 mg/kg/injection, schedule: Q04DX003 (ip), vehicle: suspension in saline 100 % of control | dose: 200.0 mg/kg/injection, schedule: Q04DX003 (ip), vehicle: suspension in saline 98 % of control

Nc1ccc(N=C2C=CC(=O)C=C2)c(N)c1
inactive: [15] 102 % of control and 90 % of control | [16] 103 % of control and 112 % of control | [17] 105 % of control | dose: 100.0 mg/kg/injection, schedule: Q01DX009 (ip), vehicle: saline 112 % of control

COC(=O)C1C(O)C(C)C(O)OC1C(C)C(O)C(C)/C=C\C=C(/C)C(=O)Nc1c(C)c(OC(C)=O)c2c(c1O)C(=O)C(C)=C1OCOC(/C(C)=C/C(C)=O)=C12 (configuration not stated)
inactive: [10] 103 % of control | [13] 106 % of control | [11] 108 % of control | [14] 113 % of control | [7] 112 % of control | [6] 113 % of control | [8] 108 % of control | [18] 118 % of control

CCCCCCN(CCCCCC)CC(O)c1ccc2c3c(cccc13)CC2 (configuration not stated)
inactive: [7] 106 % of control | [8] 102 % of control | [9] 100 % of control

COc1ccc2cc1Oc1ccc(cc1)CC1c3c(c(OC)c(OC)c(OC)c3Oc3cc4c(cc3OC)CCN(C)C4C2)CCN1C (configuration not stated)
inactive: dose: 15.0 mg/kg/injection, schedule: Q01DX009 (ip), vehicle: saline 94 % of control | dose: 30.0 mg/kg/injection, schedule: Q01DX009 (ip), vehicle: saline 94 % of control | dose: 60.0 mg/kg/injection, schedule: Q01DX009 (ip), vehicle: saline 103 % of control

CC(=O)Nc1ccc(S(=O)(=O)CC(N)=O)cc1
inactive: [15] 105 % of control | [16] 104 % of control | [17] 107 % of control | dose: 50.0 mg/kg/injection, schedule: Q01DX009 (ip), vehicle: suspension in saline 97 % of control

Cc1cc(C)c(N=Cc2cccs2)c(C)c1
inactive: [15] 107 % of control | [16] 111 % of control | [17] 101 % of control and 106 % of control | dose: 200.0 mg/kg/injection, schedule: Q01DX009 (ip), vehicle: saline 92 % of control

Cc1c[n+]2ccc3ccccc3c2c2ccccc12
inactive: dose: 2.2 mg/kg/injection, schedule: Q01DX009 (ip), vehicle: Klucel (hydroxypropylcellulose) (HPC) 119 % of control | [4] 116 % of control | dose: 3.3 mg/kg/injection, schedule: Q01DX009 (ip), vehicle: Klucel (hydroxypropylcellulose) (HPC) 120 % of control | [5] 122 % of control

CCSc1ccc2c(cc1=O)C(N)CCc1cc(OC)c(OC)c(OC)c1-2 (configuration not stated)
inactive: [7] 96 % of control | [8] 121 % of control

COC(=O)C1=NNC2(c3ccccc3Sc3ccccc32)C1C(=O)OC (configuration not stated)
inactive: [14] 90 % of control | [6] 92 % of control | [18] 90 % of control

CC12OC(=O)CC1OC2(c1ccccc1)c1ccccc1 (configuration not stated)
inactive: [1] 96 % of control | [2] 93 % of control | [3] 90 % of control

O=C(O)C(=O)O.O=C([O-])C(=O)O.O=C([O-])C(=O)O.O=C([O-])C(=O)[O-].[K+].[U]
inactive: dose: 1.56 mg/kg/injection, schedule: Q01DX009 (ip), vehicle: saline 100 % of control | dose: 3.13 mg/kg/injection, schedule: Q01DX009 (ip), vehicle: saline 100 % of control

CCN1CCC[C@]2(C)[C@H]3CC[C@@]4(C)[C@@H](CC[C@]4(C)O)[C@@H]3CC[C@@H]12
inactive: [12] 101 % of control | [13] 97 % of control | [14] 93 % of control and 95 % of control

CC1=C(C(=O)CC(=O)C(=O)Nc2ccc(Cl)cc2Cl)Sc2ccccc2N1
inactive: [1] 100 % of control | [2] 100 % of control
